pIC50: −log10 of the molar value.
Key:
[1] = Cmax in ICR mouse at 2 mg/kg, iv measured up to 24 hrs by LC-MS/MS analysis; format: ADME, organism-based; conditions: in vivo
[2] = Metabolic stability in human liver microsome assessed as parent compound remaining preincubated with compound for 10 mins followed by NADPH addition and measured at 15 min by LC-MS/MS analysis; format: ADME; conditions: liver microsomes, time 25 min, read-out: Stability
[3] = Tmax in ICR mouse at 2 mg/kg, iv measured up to 24 hrs by LC-MS/MS analysis; format: ADME, organism-based; conditions: in vivo
HT-29 [4] = assay: cells; conditions: Homo sapiens, HT-29, 72 h
[5] = MRT (0 to infinity) in ICR mouse at 2 mg/kg, iv measured up to 24 hrs by LC-MS/MS analysis; format: ADME, organism-based; conditions: in vivo
[6] = Metabolic stability in human microsome assessed as intrinsic clearance preincubated with compound for 10 mins followed by NADPH addition and measured up to 60 min by LC-MS/MS analysis; format: ADME; conditions: microsomes, time < 70 min, read-out: CLH
[7] = Metabolic stability in human liver microsome assessed as parent compound remaining preincubated with compound for 10 mins followed by NADPH addition and measured immediately by LC-MS/MS analysis; format: ADME; conditions: liver microsomes, read-out: Stability
HT-29 [8] = assay: Antitumor activity against human HT-29 cells xenografted in female BALB/c mouse assessed as tumor growth inhibition at 30 mg/kg, iv administered once daily for 21 days and measured after 3 days by vernier calipers analysis; conditions: HT-29, 576 h, read-out: TGI
HT-29 [9] = assay: cells; conditions: Homo sapiens, HT-29, 72 h; remark: listed apart in the source
Description: Synergistic antiproliferative activity against human HT-29 cells assessed as inhibition of cell proliferation incubated for 72 hrs in presence of gemcitabine by CCK-8 assay

[10] = Cmax in ICR mouse at 10 mg/kg, po measured up to 24 hrs by LC-MS/MS analysis; format: ADME, organism-based; conditions: in vivo
[11] = Half life in ICR mouse at 2 mg/kg, iv measured up to 24 hrs by LC-MS/MS analysis; format: ADME, organism-based; conditions: in vivo
[12] = AUC (0 to t) in ICR mouse at 2 mg/kg, iv measured up to 24 hrs by LC-MS/MS analysis; format: ADME, organism-based; conditions: in vivo
[13] = Metabolic stability in human liver microsome assessed as parent compound remaining preincubated with compound for 10 mins followed by NADPH addition and measured at 5 min by LC-MS/MS analysis; format: ADME; conditions: liver microsomes, time 15 min, read-out: Stability
[14] = Metabolic stability in human liver microsome assessed as parent compound remaining preincubated with compound for 10 mins followed by NADPH addition and measured at 60 min by LC-MS/MS analysis; format: ADME; conditions: liver microsomes, time 70 min, read-out: Stability
[15] = MRT (0 to t) in ICR mouse at 2 mg/kg, iv measured up to 24 hrs by LC-MS/MS analysis; format: ADME, organism-based; conditions: in vivo
[16] = AUC (0 to infinity) in ICR mouse at 2 mg/kg, iv measured up to 24 hrs by LC-MS/MS analysis; format: ADME, organism-based; conditions: in vivo
[17] = Oral bioavailability in ICR mouse at 10 mg/kg measured up to 24 hrs by LC-MS/MS analysis; format: ADME, organism-based; conditions: in vivo
[18] = Metabolic stability in human liver microsome assessed as half life preincubated with compound for 10 mins followed by NADPH addition and measured up to 60 min by LC-MS/MS analysis; format: ADME; conditions: liver microsomes, time < 70 min
[19] = Clearance in ICR mouse at 2 mg/kg, iv measured up to 24 hrs by LC-MS/MS analysis; format: ADME, organism-based; conditions: in vivo
[20] = AUC (0 to t) in ICR mouse at 10 mg/kg, po measured up to 24 hrs by LC-MS/MS analysis; format: ADME, organism-based; conditions: in vivo
HT-29 [21] = assay: cells; conditions: Homo sapiens, HT-29, 72 h; remark: listed apart in the source
Description: Antiproliferative activity against human HT-29 cells assessed as inhibition of cell proliferation incubated for 72 hrs by CCK-8 assay

[22] = Half life in ICR mouse at 10 mg/kg, po measured up to 24 hrs by LC-MS/MS analysis; format: ADME, organism-based; conditions: in vivo
HCT-116 = assay: cells; conditions: Homo sapiens, HCT-116, 72 h
Description: Antiproliferative activity against human HCT-116 cells assessed as inhibition of cell proliferation incubated for 72 hrs by CCK-8 assay

[23] = AUC (0 to infinity) in ICR mouse at 10 mg/kg, po measured up to 24 hrs by LC-MS/MS analysis; format: ADME, organism-based; conditions: in vivo
MV4-11 = assay: Antiproliferative activity against human MV4-11 cells assessed as inhibition of cell proliferation incubated for 72 hrs by CCK-8 assay; format: functional, cell-based; conditions: MV4-11, 72 h
[24] = Volume of distribution at steady state in ICR mouse at 2 mg/kg, iv measured up to 24 hrs by LC-MS/MS analysis; format: ADME, organism-based; conditions: in vivo, read-out: Vdss
[25] = Metabolic stability in human liver microsome assessed as parent compound remaining preincubated with compound for 10 mins followed by NADPH addition and measured at 30 min by LC-MS/MS analysis; format: ADME; conditions: liver microsomes, time 40 min, read-out: Stability
OVCAR-3 = assay: cells; conditions: Homo sapiens, OVCAR-3, 72 h
Description: Antiproliferative activity against human OVCAR-3 cells assessed as inhibition of cell proliferation incubated for 72 hrs by CCK-8 assay

[26] = Metabolic stability in human liver microsome assessed as intrinsic clearance preincubated with compound for 10 mins followed by NADPH addition and measured up to 60 min by LC-MS/MS analysis; format: ADME; conditions: liver microsomes, time < 70 min, read-out: CLH
[27] = Tmax in ICR mouse at 10 mg/kg, po measured up to 24 hrs by LC-MS/MS analysis; format: ADME, organism-based; conditions: in vivo
[28] = Initial plasma concentration in ICR mouse at 2 mg/kg, iv measured up to 24 hrs by LC-MS/MS analysis; format: ADME, organism-based
[29] = Toxicity in female BALB/c mouse xenografted with human HT-29 cells assessed as change in body weight at 30 mg/kg, iv administered once daily for 21 days and measured after 3 days; format: organism-based; conditions: in vivo, 576 h, time 24 day
[30] = MRT (0 to infinity) in ICR mouse at 10 mg/kg, po measured up to 24 hrs by LC-MS/MS analysis; format: ADME, organism-based; conditions: in vivo
[31] = MRT (0 to t) in ICR mouse at 10 mg/kg, po measured up to 24 hrs by LC-MS/MS analysis; format: ADME, organism-based; conditions: in vivo
HL-60 = assay: cells; conditions: Homo sapiens, HL-60, 72 h
Description: Antiproliferative activity against human HL-60 cells assessed as inhibition of cell proliferation incubated for 72 hrs by CCK-8 assay

A549 = assay: cells; conditions: Homo sapiens, A549, 72 h
Description: Antiproliferative activity against human A549 cells assessed as inhibition of cell proliferation incubated for 72 hrs by CCK-8 assay

A2780 = assay: cells; conditions: Homo sapiens, A2780, 72 h
Description: Antiproliferative activity against human A2780 cells assessed as inhibition of cell proliferation incubated for 72 hrs by CCK-8 assay

[32] = target: Serine/threonine-protein kinase Chk2 (Homo sapiens) (UniProt O96017); assay: Inhibition of CHK2 (unknown origin) at 500 nM relative to control
Chain of Serine/threonine-protein kinase Chk2 (Homo sapiens) (O96017 whole entry): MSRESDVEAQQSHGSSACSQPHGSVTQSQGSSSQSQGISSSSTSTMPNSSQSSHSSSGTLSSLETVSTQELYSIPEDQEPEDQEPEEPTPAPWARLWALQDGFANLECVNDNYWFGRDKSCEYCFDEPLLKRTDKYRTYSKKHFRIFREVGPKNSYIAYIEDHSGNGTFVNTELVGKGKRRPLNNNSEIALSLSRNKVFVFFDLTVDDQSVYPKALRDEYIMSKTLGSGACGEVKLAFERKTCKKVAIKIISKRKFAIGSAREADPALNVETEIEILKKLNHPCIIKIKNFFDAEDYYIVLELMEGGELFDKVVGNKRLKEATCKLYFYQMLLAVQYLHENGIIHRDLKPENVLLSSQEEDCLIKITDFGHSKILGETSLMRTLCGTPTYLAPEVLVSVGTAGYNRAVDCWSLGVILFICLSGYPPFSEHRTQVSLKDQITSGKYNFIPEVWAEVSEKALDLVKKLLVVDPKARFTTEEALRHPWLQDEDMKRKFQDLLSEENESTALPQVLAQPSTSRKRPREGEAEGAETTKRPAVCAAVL

MDA-MB-468 = assay: cells; conditions: Homo sapiens, MDA-MB-468, 72 h
Description: Antiproliferative activity against human MDA-MB-468 cells assessed as inhibition of cell proliferation incubated for 72 hrs by CCK-8 assay

HT-29 [33] = assay: Antitumor activity against human HT-29 cells xenografted in female BALB/c mouse assessed as tumor growth inhibition at 30 mg/kg, iv administered once daily for 21 days and measured after 3 days in presence of gemcitabine by vernier calipers analysis; conditions: HT-29, 576 h, read-out: TGI

SMILES: N#Cc1ncc(Nc2ncc3c(ccc(=O)n3CC(F)F)n2)cc1N[C@@H]1CCNC1
- Cmax [1]: 526 ng/mL
- remaining at 0.25 h [2]: 24.4%
- Tmax [3]: 4.8 min
- pIC50 (HT-29 [4]): 7.20
- MRT inf [5]: 3.91 h
- microsomal CLint [6]: 129 µL/min/mg
- remaining at 0 min [7]: 100%
- inhibition in vivo at 30 mg/kg (HT-29 [8]): 20.6%
- pIC50 (HT-29 [9]): 7.20
- Cmax [10]: 81.1 ng/mL
- half-life [11]: 5.7 h
- AUC(0-t) at 24 h [12]: 327 ng·h/mL
- remaining at 5 min [13]: 60.1%
- remaining at 1 h [14]: 1.96%
- MRT last at 24 h [15]: 2.67 h
- AUC(0-inf) [16]: 341 ng·h/mL
- bioavailability [17]: 2.77%
- half-life [18]: 0.18 h
- clearance [19]: 98.4 mL/min/kg
- AUC(0-t) at 24 h [20]: 40.7 ng·h/mL
- pIC50 (HT-29 [21]): 5.93
- half-life [22]: 1.51 h
- pIC50 (HCT-116): < 5.00
- AUC(0-inf) [23]: 47.3 ng·h/mL
- pIC50 (MV4-11): 6.69
- Vd [24]: 23.3 L/kg
- remaining at 0.5 h [25]: 8.93%
- pIC50 (OVCAR-3): 6.22
- CLint scaled [26]: 116 mL/min/kg
- Tmax [27]: 4.8 min
- C0 at 24 h [28]: 860 ng/mL
- Activity [29]: Non-Toxic
- MRT inf [30]: 1.65 h
- MRT last at 24 h [31]: 1 h
- pIC50 (HL-60): < 5.00
- pIC50 (A549): < 5.00
- pIC50 (A2780): < 5.00
- inhibition [32]: 22%
- pIC50 (MDA-MB-468): < 5.00
- inhibition in vivo at 30 mg/kg (HT-29 [33]): 42.8%
